Experimental data taken from patent US8846739B2, “TGR5 agonists” (Exelixis Patent Company LLC, priority 2009, dated 2014).

Legend:
[1] = molecular target: T1, human TGR5 (h-TGR5) (Homo sapiens, UniProt Q8TDU6); assay: TGR5/CRE-Luciferase Assay; format: cell-based; conditions: HEK 293 hTGR5/CRE-Luc cells, 6 hours incubation, read-out: CRE-Luc Agonist (EC50)
T1 sequence (Q8TDU6 1-330): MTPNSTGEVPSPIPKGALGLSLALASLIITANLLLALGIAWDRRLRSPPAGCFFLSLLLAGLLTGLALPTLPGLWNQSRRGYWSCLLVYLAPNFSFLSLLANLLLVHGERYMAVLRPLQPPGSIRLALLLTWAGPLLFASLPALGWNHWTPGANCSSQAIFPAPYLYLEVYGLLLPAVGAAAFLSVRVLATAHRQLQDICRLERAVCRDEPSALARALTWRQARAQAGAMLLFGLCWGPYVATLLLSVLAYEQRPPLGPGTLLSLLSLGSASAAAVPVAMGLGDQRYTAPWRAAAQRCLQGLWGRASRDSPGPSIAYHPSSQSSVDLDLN
Procedure, shortened: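 HEK 293 CRE-Luciferase cells stably expressing the receptor, plated in DMEM 18-20 h before assay, then exposed to serially diluted compounds (DMEM with 5% DMSO) for 6 h. Luciferase read-out after lysis; EC50 from dose-response.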

[2] = molecular target: T2, h-TGR5 (Homo sapiens, UniProt Q8TDU6); assay: TGR5 cAMP Assay using Cisbio cAMP Dynamic 2 htrf assay kit; format: cell-based; conditions: hTGR5CRE-luc HEK 293 cells
T2 sequence (Q8TDU6 1-330): T1 sequence (Q8TDU6 1-330)

Compound	EC50 [1] [nM]	EC50 [2] [nM]
COc1cc(C(C)(C)c2cnc(SCc3c(F)cc(S(=O)(=O)N4CC[C@H]([N+](C)(C)C)C4)cc3Cl)n2-c2ccc(F)cc2)ccc1Cl [Compound 11l, (3S)-1-{[3-chloro-4-({[5-{1-[4-chloro-3-(methyloxy)phenyl]-1-methylethyl}-1-(4-fluorophenyl)-1H-imidazol-2-yl]thio}methyl)-5-fluorophenyl]sulfonyl}-N,N,N-trimethylpyrrolidin-3-aminium]	< 100	< 100
COc1cc(C(C)(C)c2cnc(SCc3c(F)cc(S(=O)(=O)N(CCCC[N+]45CCN(CC4)CC5)[C@H](C)C(=O)O)cc3F)n2-c2ccc(F)cc2)ccc1Cl [Compound 22a, N-[4-(4-aza-1-azoniabicyclo[2.2.2]oct-1-yl)butyl]-N-{[4-({[5-{1-[4-chloro-3-(methyloxy)phenyl]-1-methylethyl}-1-(4-fluorophenyl)-1H-imidazol-2-yl]thio}methyl)-3,5-difluorophenyl]sulfonyl}-D-alanine]	< 100	< 100
COc1cc(C(C)(C)c2cnc(SCc3c(F)cc(CCC[N+]45CCN(CC4)CC5)cc3F)n2-c2ccc(F)cc2)ccc1Cl [Compound 19, 1-(3-(4-((5-(2-(4-chloro-3-methoxyphenyl)propan-2-yl)-1-(4-fluorophenyl)-1H-imidazol-2-ylthio)methyl)-3,5-difluorophenyl)propyl)-4-aza-1-azoniabicyclo[2.2.2.2]octane 2,2,2-trifluoroacetate]	< 100	< 100
COc1cc(C(C)(C)c2cnc(CCc3c(F)cc(S(=O)(=O)N[C@@H](CCCC[N+](C)(C)C)C(=O)O)cc3Cl)n2-c2ccc(F)cc2)ccc1Cl [Compound 17n, (S)-5-carboxy-5-(3-chloro-4-(2-(5-(2-(4-chloro-3-methoxyphenyl)propan-2-yl)-1-(4-fluorophenyl)-1H-imidazol-2-yl)ethyl)-5-fluorophenylsulfonamido)-N,N,N-trimethylpentan-1-aminium 2,2,2-trifluoroacetate]	< 100	< 100
COc1cc(C(C)(C)c2cnc(SCc3c(F)cc(S(=O)(=O)N(CCC[N+](C)(C)C)CCC[N+](C)(C)C)cc3F)n2-c2ccc(F)cc2)ccc1Cl [Example 6i, 3,3′-({[4-({[5-{1-[4-chloro-3-(methyloxy)phenyl]-1-methylethyl}-1-(4-fluorophenyl)-1H-imidazol-2-yl]thio}methyl)-3,5-difluorophenyl]sulfonyl}imino)bis(N,N,N-trimethylpropan-1-aminium)]	100 to 1000	< 100
COc1cc(C(C)(C)c2cnc(SCc3c(F)cc(S(=O)(=O)N(CCC[N+](C)(C)C)CCC(=O)O)cc3F)n2-c2ccc(F)cc2)ccc1Cl [Compound 14r, 3-[(2-carboxyethyl){[4-({[5-{1-[4-chloro-3-(methyloxy)phenyl]-1-methylethyl}-1-(4-fluorophenyl)-1H-imidazol-2-yl]thio}methyl)-3,5-difluorophenyl]sulfonyl}amino]-N,N,N-trimethylpropan-1-aminium]	< 100	< 100
COc1cc(C(C)(C)c2cnc(SCc3cc(S(=O)(=O)N(CCC[N+](C)(C)C)CCC[N+](C)(C)C)c(F)cc3Cl)n2-c2ccc(F)cc2)ccc1Cl [Example 6p, 3,3′-({[4-chloro-5-({[5-{1-[4-chloro-3-(methyloxy)phenyl]-1-methylethyl}-1-(4-fluorophenyl)-1H-imidazol-2-yl]thio}methyl)-2-fluorophenyl]sulfonyl}imino)bis(N,N,N-trimethylpropan-1-aminium)]	100 to 1000	100 to 1000
COc1cc(-n2c(C(C)(C)c3ccc(Cl)c(Cl)c3)cnc2SCc2c(F)cc(C(=O)N[C@H]3CCC[N+](C)(C)C3)cc2Cl)ccc1F [Example 2o, (3S)-3-[({3-chloro-4-[({5-[1-(3,4-dichlorophenyl)-1-methylethyl]-1-[4-fluoro-3-(methyloxy)phenyl]-1H-imidazol-2-yl}thio)methyl]-5-fluorophenyl}carbonyl)amino]-1,1-dimethylpiperidinium]	< 100	< 100
COc1cc(C(C)(C)c2cnc(SCc3c(F)cc(S(=O)(=O)N[C@@H]4CCC[N+](C)(C)C4)cc3F)n2-c2ccc(F)cc2)ccc1Cl [Compound 11d, (3R)-3-({[4-({[5-{1-[4-chloro-3-(methyloxy)phenyl]-1-methylethyl}-1-(4-fluorophenyl)-1H-imidazol-2-yl]thio}methyl)-3,5-difluorophenyl]sulfonyl}amino)-1,1-dimethylpiperidinium]	< 100	< 100
COc1cc(C(C)(C)c2cnc(SCc3c(F)cc(C(=O)NCC4(O)CC[N+](C)(C)CC4)cc3Cl)n2-c2ccc(F)cc2)ccc1Cl [Example 2m, 4-[({[3-chloro-4-({[5-{1-[4-chloro-3-(methyloxy)phenyl]-1-methylethyl}-1-(4-fluorophenyl)-1H-imidazol-2-yl]thio}methyl)-5-fluorophenyl]carbonyl}amino)methyl]-4-hydroxy-1,1-dimethylpiperidinium]	< 100	< 100
COC(=O)[C@@H](C)N(CCC[N+](C)(C)C)S(=O)(=O)c1cc(F)c(CSc2ncc(C(C)(C)c3ccc(Cl)c(OC)c3)n2-c2ccc(F)cc2)c(F)c1 [Compound 14, (R)-3-(4-((5-(2-(4-chloro-3-methoxyphenyl)propan-2-yl)-1-(4-fluorophenyl)-1H-imidazol-2-ylthio)methyl)-3,5-difluoro-N-(1-methoxy-1-oxopropan-2-yl)phenylsulfonamido)-N,N,N-trimethylpropan-1-aminium 2,2,2-trifluoroacetate]	< 100	< 100
CC[C@@H](C(=O)O)N(CCC[N+](C)(C)C)S(=O)(=O)c1cc(F)c(CSc2ncc(C(C)(C)c3ccc(Cl)c(OC)c3)n2-c2ccc(F)cc2)c(Cl)c1 [Compound 14w, 3-([(1S)-1-carboxypropyl]{[3-chloro-4-({[5-{1-[4-chloro-3-(methyloxy)phenyl]-1-methylethyl}-1-(4-fluorophenyl)-1H-imidazol-2-yl]thio}methyl)-5-fluorophenyl]sulfonyl}amino)-N,N,N-trimethylpropan-1-aminium]	< 100	< 100
COc1cc(C(C)(C)c2cnc(SCc3c(F)cc(S(=O)(=O)N[C@@H](CCCC[N+](C)(C)C)C(=O)O)cc3Cl)n2-c2ccc(F)cc2)ccc1Cl [Compound 17e, (S)-5-carboxy-5-(3-chloro-4-((5-(2-(4-chloro-3-methoxyphenyl)propan-2-yl)-1-(4-fluorophenyl)-1H-imidazol-2-ylthio)methyl)-5-fluorophenylsulfonamido)-N,N,N-trimethylpentan-1-aminium 2,2,2-trifluoroacetate]	< 100	< 100
CC[N+](CC)(CC)CCCNS(=O)(=O)c1cc(F)c(CSc2ncc(C(C)(C)c3ccc(F)c(OC)c3)n2-c2ccc(F)cc2)c(Cl)c1 [Example 6o, 3-({[3-chloro-5-fluoro-4-({[5-{1-[4-fluoro-3-(methyloxy)phenyl]-1-methylethyl}-1-(4-fluorophenyl)-1H-imidazol-2-yl]thio}methyl)phenyl]sulfonyl}amino)-N,N,N-triethylpropan-1-aminium]	< 100	< 100
COc1cc(C(C)(C)c2cnc(SCc3c(F)cc(S(=O)(=O)N(CCC[N+]45CCN(CC4)CC5)[C@H](C)C(=O)O)cc3F)n2-c2ccc(F)cc2)ccc1Cl [Compound 22, (R)-1-(3-(N-(1-carboxyethyl)-4-((5-(2-(4-chloro-3-methoxyphenyl)propan-2-yl)-1-(4-fluorophenyl)-1H-Imidazol-2-ylthio)methyl)-3,5-difluorophenylsulfonamido)propyl)-4-aza-1-azoniabicyclo[2.2.2]octane chloride]	< 100	< 100
COc1cc(C(C)(C)c2cnc(SCc3c(F)cc(S(=O)(=O)N(CC4CC[N+](C)(C)CC4)[C@H](C)C(=O)O)cc3F)n2-c2ccc(F)cc2)ccc1Cl [Compound 15, 2,2,2-trifluoroacetate]	< 100	< 100
CCN([C@@H](CCC[N+](C)(C)C)C(=O)O)S(=O)(=O)c1cc(F)c(CSc2ncc(C(C)(C)c3ccc(Cl)c(OC)c3)n2-c2ccc(F)cc2)c(F)c1 [Compound 17a, (S)-4-carboxy-4-(4-((5-(2-(4-chloro-3-methoxyphenyl)propan-2-yl)-1-(4-fluorophenyl)-1H-imidazol-2-ylthio)methyl)-N-ethyl-3,5-difluorophenylsulfonamido)-N,N,N-trimethylbutan-1-aminium 2,2,2-trifluoroacetate]	< 100	< 100
CC[N+](CC)(CC)CCCNC(=O)NS(=O)(=O)c1cc(F)c(CSc2ncc(C(C)(C)c3ccc(Cl)c(OC)c3)n2-c2ccc(F)cc2)c(F)c1 [Example 8, 3-(3-(4-((5-(2-(4-Chloro-3-methoxyphenyl)propan-2-yl)-1-(4-fluorophenyl)-1H-imidazol-2-ylthio)methyl)-3,5-difluorophenylsulfonyl)ureido)-N,N,N-triethylpropan-1-aminium 2,2,2-trifluoroacetate]	< 100	< 100
COc1cc(C(C)(C)c2cnc(SCc3c(F)cc(S(=O)(=O)N4CC[C@@H](C[N+](C)(C)C)C4)cc3Cl)n2-c2ccc(F)cc2)ccc1F [Compound 11v, [(3S)-1-{[3-chloro-5-fluoro-4-({[5-(1-[4-fluoro-3-(methyloxy)phenyl]-1-methylethyl}-1-(4-fluorophenyl)-1H-imidazol-2-yl]thio}methyl)phenyl]sulfonyl}pyrrolidin-3-yl]-N,N,N-trimethylmethanaminium]	< 100	< 100
